Assay: Assaying of tocopherol phosphate by HPLC in the concentrated aqueous solution (state of dissolution)
Assay type: physicochemical
Details: concentrated aqueous solution of Example 1 (3.5% PPG-6-Decyltetradeceth-20, 17.4% 1,2-pentanediol, 8.7% γ-TPNa added, water), UV 290 nm, ambient temperature
Description: Method for the Assaying of Tocopherol Phosphate by HPLC
The concentrated solution of γ-TPNa obtained in Example 1 and the compositions prepared in Examples 2 to 5 are assayed for tocopherol phosphate by HPLC according to the following conditions:
Elution gradient:—Eluent A: sodium acetate/acetic acid buffer pH 4.2 • Eluent B=methanol/THF (80/20)
Preparation of the Solutions
Diluent: Eluent A/eluent B (20/80 v/v)
Standard solution for the calibration=solution of γ-TPNa at 0.08 mg/ml of diluent.
Solution for the assaying of the concentrated solution (Ex. 1):
100 mg of the concentrated aqueous solution are withdrawn and diluted in 100 ml of diluent.

Cc1c(OP(=O)([O-])[O-])cc2c(c1C)OC(C)(CCCC(C)CCCC(C)CCCC(C)C)CC2.[Na+].[Na+] (stereo not shown) [γ-TPNa, Sodium salt of γ-tocopherol phosphate]
Result of the assaying of the γ-TPNa in the concentrated solution (dissolved amount): 8.7 % by weight
